Reference: paper PMC7917639, “Nopol-Based Quinoline Derivatives as Antiplasmodial Agents” (Molecules, 2021)

System: Human hepatocarcinoma cell line (Hep G2)
Assay: Cytotoxicity assay (MTT)
Format: cell-based
Details: SDS 0.1%, assay positive control

## CCCCCCCCCCCCOS(=O)(=O)[O-].[Na+] [SDS (0.1%)]
  Hep G2 percent viability: ^b 1%
